Laboratory results from patent publication US8680065B2, “Oligonucleotides of human endogenous retrovirus 9 (ERV-9) long terminal repeat (LTR) and methods of use” (The United States of America, as represented by the …, priority 2008, dated 2014).

How the values were obtained:
Assay type in all cases: cell-based, human
[1] = test system: LNcaP cells (a prostate cancer cell line); assay: Cancer cell proliferation, oligonucleotide in LIPOFECTAMINE, 48 hours, direct cell counting; conditions: oligonucleotide 10, 20 or 30 μg/ml
HT1080 cells = assay: Cancer cell proliferation, U3 and U5 oligonucleotides, 72 hours; conditions: 20 μg/ml
Description: FIG. 16 is a graph showing the effect of sense and antisense ERV-9 U3 (SEQ ID NOs: 1, 2, 7, 8, 9, and 10) and U5 (SEQ ID NOs: 11 and 12) oligonucleotides on proliferation of HT1080 cells. Cells (4×10^4) were treated with oligonucleotide formulated in LIPOFECTAMINE™ at a concentration of 20 μg/ml for 72 hours. GFP sense oligonucleotide was used as a control to measure the non-specific cytotoxicity of phosphorothioate-based oligonucleotides. Antisense oligonucleotides G3139, GRN163, and MDM2 were also evaluated. Cell proliferation levels were expressed relative to cells transfected with GFP oligonucleotide. All U3 and U5 sense and antisense oligonucleotides inhibited cell proliferation to a greater extent that GFP control. In addition, with the exception of the U5 sense oligonucleotide, all U3 and U5 oligonucleotides inhibited cell proliferation better than the G3139, GRN163 and MDM2 antisense oligonucleotides.
HT1080 or MDA-231 cells (4×10^4 cells) were treated with ERV-9 LTR (U3 or U5) sense or antisense oligonucleotides formulated in LIPOFECTAMINE™ at a concentration of 20 μg/ml for 72 hours. GFP sense oligonucleotide was used as a control to measure the non-specific cytotoxicity of phosphorothioates-based oligonucleotides. Relative cell proliferation levels were expressed as percentage of GFP oligonucleotide transfected control. The results are shown in FIG. 16 (HT1080 cells) and FIG. 17 (MDA-231 cells).

[2] = test system: HT1080 cells (a fibrosarcoma cell line); assay: Cancer cell proliferation, oligonucleotide in LIPOFECTAMINE, 48 hours, direct cell counting; conditions: P<0.05
Description: FIG. 1 is a graph showing the effect of sense and antisense ERV-9 U3 oligonucleotides (SEQ ID NOs: 1 and 2, respectively) on proliferation of HT1080 cells (a fibrosarcoma cell line). Cells (4×10^4) were treated with ERV-9 U3 sense or antisense oligonucleotide formulated in LIPOFECTAMINE™ at the concentrations shown for 48 hours. Green fluorescent protein (GFP) sense oligonucleotide (SEQ ID NO: 3) was used as a control to measure the non-specific cytotoxicity of phosphorothioate-based oligonucleotides. Antisense oligonucleotides specific for Bcl-2 (G3139; SEQ ID NO: 4), telomerase (GRN163; SEQ ID NO: 5) and MDM2 (SEQ ID NO: 6) were also evaluated. Cell proliferation levels were expressed relative to cells transfected with 10 μg/ml GFP oligonucleotide.
(§1) To test the effect of the sense and antisense ERV-9 U3 oligonucleotides on proliferation of cancer cells, six different cancer cell lines were selected for transfection studies: HT1080, fibrosarcoma cells (FIG. 1); MDA-231, breast cancer cells (FIG. 2); K562, myelogenous leukemia cells (FIG. 3); LNcaP, prostate cancer cells (FIG. 4); HepG2, hepatocellular carcinoma cells (FIG. 5); and MCF-7, breast cancer cells (FIG. 6). Cells (4×10^4) were treated with ERV-9 U3 sense or antisense oligonucleotide formulated in LIPOFECTAMINE™ at an oligonucleotide concentration of 10, 20 or 30 μg/ml for 48 hours. Green fluorescent protein (GFP) sense oligonucleotide ([…]; SEQ ID NO: 3) was used as a control to measure the non-specific cytotoxicity of phosphorothioate-based oligonucleotides. Antisense oligonucleotides specific for Bcl-2 (G3139; TCTCCCAGCGTGCGCCAT; SEQ ID NO: 4), telomerase (GRN163; TAGGGTTAGACAA; SEQ ID NO: 5), and MDM2 ([…]; SEQ ID NO: 6) were also evaluated. […] After 48 hours of oligonucleotide treatment, cell proliferation was assessed by direct cell counting. Cell proliferation levels were expressed relative to cells transfected with 10 μg/ml GFP control oligonucleotide.

MCF-7 cells = assay: Cancer cell proliferation, oligonucleotide in combination with VP16, 48 hours; conditions: oligonucleotide 15 μg/ml with VP16 30 ng/ml and 50 ng/ml, P<0.05
Description: FIG. 12 is a graph showing proliferation of MCF-7 cells treated with ERV-9 U3 sense or antisense oligonucleotide (SEQ ID NOs: 1 and 2, respectively), in combination with VP16. Cells (4×10^4) were treated with oligonucleotide (15 μg/ml) alone or in combination with the concentrations of VP16 shown for 48 hours.
To test the effect of treating cancer cells with the combination of ERV-9 U3 oligonucleotide and VP16, six different cancer cell lines were analyzed: HT1080, (FIG. 7); MDA-231 (FIG. 8); K562 (FIG. 9); LNcaP (FIG. 10); HepG2 (FIG. 11); and MCF-7 (FIG. 12). Cells (4×10^4) were treated with 15 μg/ml ERV-9 U3 sense (SEQ ID NO: 1) or antisense (SEQ ID NO: 2) oligonucleotide alone or in combination with VP16 at a concentration of 30 ng/ml or 50 ng/ml. After 48 hours, cell proliferation was assessed by direct cell counting. Cell proliferation levels were expressed relative to GFP oligonucleotide control in the absence of VP16.

[3] = test system: MDA-231 cells (a breast cancer cell line); assay: Cancer cell proliferation, oligonucleotide in LIPOFECTAMINE, 48 hours, direct cell counting; conditions: oligonucleotide 10, 20 or 30 μg/ml, P<0.05
[4] = test system: HT1080, MDA-231, K562, LNcaP, HepG2 and MCF-7 cancer cell lines; assay: Cancer cell proliferation, Example 1, summary over six cancer cell lines; conditions: for proliferation relative to GFP control oligonucleotide: each of six cancer cell lines, 10, 20 or 30 μg/ml, 48 hours; for proliferation compared with Bcl-2, telomerase and MDM2-specific antisense oligonucleotides: six cancer cell lines, in most instances
Description: as §1

[5] = oligonucleotide 20 μg/ml and 30 μg/ml

| Substance | cell proliferation relative to GFP oligonucleotide [1] | cell proliferation relative to GFP oligonucleotide transfected control (HT1080 cells) | cell proliferation relative to GFP oligonucleotide ([2]; oligonucleotide 10 μg/ml) | cell proliferation relative to GFP oligonucleotide [2, 5] | cell proliferation relative to GFP oligonucleotide control (MCF-7 cells) | cell proliferation relative to GFP oligonucleotide [3] | proliferation relative to GFP control oligonucleotide [4] | proliferation compared with Bcl-2, telomerase and MDM2-specific antisense oligonucleotides [4] | tumor cell proliferation, antisense relative to sense oligonucleotide ([4]; tumor cells) |
| --- | --- | --- | --- | --- | --- | --- | --- | --- | --- |
| U3AS: ERV-9 LTR U3 antisense oligonucleotide CTGATTGGTGTGTTTACAAACCTTGAG, phosphorothioate internucleoside linkages at each position (all phosphorothioate, sugars by position and methylation of C not given here) [Oligo U3AS] | inhibited cell proliferation better than GFP control oligonucleotide at all three oligonucleotide concentrations | inhibited cell proliferation better than G3139, GRN163 and MDM2 oligonucleotides | inhibited cell proliferation better than GFP oligonucleotide | inhibited cell proliferation better than GFP control and G3139, GRN163 and MDM2 antisense oligonucleotides | inhibited cell proliferation better than GFP control and G3139, GRN163 and MDM2 antisense oligonucleotides | inhibited cell proliferation better than GFP control oligonucleotide at all three oligonucleotide concentrations | resulted in a significant decrease in proliferation of each cancer cell line tested, relative to GFP control oligonucleotide | inhibited proliferation to a greater extent than the Bcl-2, telomerase and MDM2-specific antisense oligonucleotides | more potently inhibited tumor cell proliferation (relative to the sense oligonucleotide) |
| U3S: ERV-9 LTR U3 sense oligonucleotide CTCAAGGTTTGTAAACACACCAATCAG, phosphorothioate internucleoside linkages at each position (all phosphorothioate, sugars by position and methylation of C not given here) [Oligo U3S] | inhibited cell proliferation better than GFP control oligonucleotide at all three oligonucleotide concentrations | inhibited cell proliferation better than G3139, GRN163 and MDM2 oligonucleotides | inhibited cell proliferation better than GFP oligonucleotide | inhibited cell proliferation better than GFP control and G3139, GRN163 and MDM2 antisense oligonucleotides | inhibited cell proliferation better than GFP control and G3139, GRN163 and MDM2 antisense oligonucleotides | inhibited cell proliferation better than GFP control oligonucleotide at all three oligonucleotide concentrations | resulted in a significant decrease in proliferation of each cancer cell line tested, relative to GFP control oligonucleotide | inhibited proliferation to a greater extent than the Bcl-2, telomerase and MDM2-specific antisense oligonucleotides | – |
